“Also recorded” adds a separate entry of the source. Blank lines part the entries; values can stand above or below the compound they belong to.
Tests used:
platelets [1] = test: Lactadherin binding to A23187-stimulated platelets (flow cytometry); format: cell-based; details: Platelet; 0.25 μM A23187 vs. unstimulated platelets; read-out: net increase of fluorescence (bound lactadherin)
Method: We asked whether platelets have a stimulated state when they bind lactadherin but not annexin V, consistent with the hypothesis that platelets have the capacity to regulate PS exposure at a level less than 2.5% PS (FIG. 8A-C). Platelets were incubated with fluorescein labeled lactadherin and Alexa Fluor 647 labeled annexin V. Because competition of either protein for the other's binding sites was <20% at these concentrations (FIG. 7C, 7D) we utilized both proteins simultaneously. The gain on the flow cytometer was set so that the intrinsic fluorescence of unstimulated platelets placed the population in the lower left quadrant of the display (FIG. 8A). […] Comparison with the unstimulated state indicates a net increase of fluorescence to approximately 3-fold. (FIG. 8B). The cross-hair allows comparison of modal fluorescence values for resting platelets vs. stimulated platelets.

platelets [2] = test: Loss of NBD-PS fluorescence from stimulated platelets (PS exposure); format: cell-based; details: 10 μM A23187, 8 min
From the text: In order to estimate the rate and extent of PS exposure on the platelet plasma membrane we utilized fluorescence-labeled PS (Reference 62). Prior reports indicate that platelets translocate NBD-PS to the inner leaflet of the plasma membrane, like unlabeled PS. When stimulated platelets transfer NBD-PS to the outer leaflet of the plasma membrane it is rapidly exchanged into delipidated albumin that is present in the buffer. Thus, translocation of NBD-PS to the outer plasma membrane causes a net loss in cell fluorescence. NBD-PS was loaded into membranes of resting platelets from donor vesicles prior to platelet purification. The rate and extent of platelet fluorescence loss provide an estimate of the rate and extent of plasma membrane PS exposure.
During the first minute after addition of TRAP the fluorescence loss was 12±1.8% vs. 5±2.5% for control platelets. Stimulation with 10 μM A23187 led to the same rate of fluorescence loss during the first minute but the rate was maintained so that after 8 min. >90% of NBD fluorescence was lost (FIG. 12B inset).

[3] = molecular target: T1, bovine lactadherin (fluorescein-labeled, purified from bovine milk) (Bos taurus, UniProt Q95114); test: Equilibrium binding of fluorescein-labeled lactadherin to lipospheres (membranes on glass microspheres, flow cytometry); details: for binding of lactadherin: lipospheres with 2% synthetic dioleoyl lipid, 20% PE, balance PC, FIG. 5A
T1 construct: from tissue; host or cells: bovine milk
T1 sequence (Q95114 19-427): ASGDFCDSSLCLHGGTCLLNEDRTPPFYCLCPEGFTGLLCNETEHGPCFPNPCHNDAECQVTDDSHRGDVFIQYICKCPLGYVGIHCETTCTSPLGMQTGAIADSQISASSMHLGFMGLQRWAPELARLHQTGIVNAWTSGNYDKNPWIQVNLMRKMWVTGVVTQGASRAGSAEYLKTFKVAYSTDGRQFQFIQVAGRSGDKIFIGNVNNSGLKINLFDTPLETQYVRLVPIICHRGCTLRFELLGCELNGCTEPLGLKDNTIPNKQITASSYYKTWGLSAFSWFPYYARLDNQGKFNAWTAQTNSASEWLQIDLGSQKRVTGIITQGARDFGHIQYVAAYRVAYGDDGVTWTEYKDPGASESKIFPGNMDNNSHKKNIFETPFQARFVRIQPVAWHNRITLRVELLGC
Method: (§1) Lactadherin was purified from bovine milk as previously described (Reference 1). Lactadherin, 0.2 mg in 0.2 ml phosphate-buffered saline, was concentrated 10-fold by ultrafiltration with a Centricon YM-10 (Millipore, Bedford, Mass.) followed by dilution to the starting concentration into 0.1 M sodium carbonate buffer, pH 9.0. Fluorescein isothiocyanate (Molecular Probes, Eugene, Oreg.) 6 μl of 10 mg/ml solution in DMSO, was added to lactadherin and the mixture was incubated for one hour at RT in the dark. Free fluorescein was removed by gel filtration using a micro spin column equilibrated with 0.1 M sodium carbonate, 0.1 M betaine, 0.004% Tween-80, pH 9.0 (FluoReporter FITC Protein Labeling Kit, Molecular Probes, Eugene, Oreg.). Fluorescein-labeled lactadherin was concentrated approx. 10-fold by ultrafiltration using a Centricon YM-10, and diluted to approximately the original concentration in 0.15 M NaCl, 50 mM Tris-HCl, pH 7.5. Labeling efficiency was judged by comparison of absorbance at 490 nm to absorbance at 280 nm (correcting for fluorescein absorbance at 280 nm).
Glass microspheres of 1.6 μm nominal diameter (Duke Scientific, Palo Alto, Calif.) were cleaned, size-restricted and covered with a phospholipid bilayer as previously described (Reference 17). Membranes supported by glass microspheres were washed three times in 0.15 M NaCl, 0.02 M Tris-HCl, 0.1% defatted bovine albumin, 10 μM egg PC as sonicated vesicles; stored at 4° C.; and used within 8 hours of synthesis. Fluorescein-labeled factor VIII (4 nM) was incubated with lactadherin or annexin V for 15 min at room temperature, the mixture was added to lipospheres for an additional 10 minutes, and membrane-bound fVIII was measured by flow cytometry. This procedure was performed on 150 μl aliquots with an approximate liposphere concentration of 1×10^6/ml using a Becton Dickinson FACSCalibur flow cytometer. Data acquisition was triggered by forward light scatter with all photomultipliers in the log mode. […] Mean log fluorescence was converted to linear fluorescence for values depicted in the figures. Only experiments in which the fluorescence histogram indicated a log normal distribution, as judged by inspection, were analyzed quantitatively. […]
The equilibrium binding of lactadherin to lipospheres was fitted by non-linear, least squares data analysis using the standard binding model (assuming a single class of binding sites and that the fraction of bound lactadherin was small at each concentration evaluated). […]
Fluorescein-labeled lactadherin interacted with phospholipid bilayers supported by glass microspheres (lipospheres). […] After 10 minutes, we measured bound lactadherin using flow cytometry (FIG. 1A). […]

[4] = molecular target: T1, bovine lactadherin (fluorescein-labeled, purified from bovine milk); test: Competition of soluble head group for fluorescein-lactadherin binding to lipospheres (flow cytometry); details: for inhibition of lactadherin binding: concentrations as high as 0.35 M
Method: Flow Cytometry Phospholipid Binding Assay
Glass microspheres of 1.6 μm nominal diameter (Duke Scientific, Palo Alto, Calif.) were cleaned, size-restricted and covered with a phospholipid bilayer as previously described (Reference 17). Membranes supported by glass microspheres were washed three times in 0.15 M NaCl, 0.02 M Tris-HCl, 0.1% defatted bovine albumin, 10 μM egg PC as sonicated vesicles; stored at 4° C.; and used within 8 hours of synthesis. […] This procedure was performed on 150 μl aliquots with an approximate liposphere concentration of 1×10^6/ml using a Becton Dickinson FACSCalibur flow cytometer. Data acquisition was triggered by forward light scatter with all photomultipliers in the log mode. Noise was reduced during analysis by eliminating events with forward and side scatter values different from those characteristic of the lipospheres. Mean log fluorescence was converted to linear fluorescence for values depicted in the figures. Only experiments in which the fluorescence histogram indicated a log normal distribution, as judged by inspection, were analyzed quantitatively. Flow cytometry experiments were performed in 0.14 M NaCl, 0.02 M Trizma-HCl, 0.1% bovine albumin, pH 7.5 with CaCl2 as specified for individual experiments.
Fluorescein-labeled lactadherin was incubated with 10^6 lipospheres/ml in Tris-buffered saline, 1.5 mM CaCl2, 0.1% BSA for 10 min. prior to evaluation of bound lactadherin by flow cytometry. The final concentrations of lactadherin were varied to estimate the affinity and stoichiometry of bound lactadherin.
To estimate the stereoselective affinity of lactadherin for the L-serine containing head group of Ptd-L-Ser, we performed binding inhibition studies (FIG. 5B).

[5] = molecular target: T1, bovine lactadherin (fluorescein-labeled, purified from bovine milk); test: Competition of phospholipid vesicles with lipospheres for fluorescein-labeled lactadherin; format: binding; details: for support of lactadherin binding: vesicles lacking Ptd-L-Ser, FIG. 4B; for effect on number of binding sites or affinity for lactadherin: extruded vesicles, 0-20% PE, 1% Ptd-L-Ser
Method: as §1
Phospholipid vesicles were prepared by evaporating chloroform from the desired phospholipids, resuspending in methylene chloride and re-evaporating twice under argon. Large multilamellar vesicles were prepared by gently swirling tris-buffered saline (50 mM Tris, 150 mM NaCl, pH 7.4) over the dried lipid suspension until all lipid was suspended. Some of the large multilamellar vesicles were then utilized to prepare small unilamellar vesicles by sonication in a high intensity bath sonicator (Laboratory Supplies, Inc. Hicksville, N.Y.) under argon until visually clear (approx. 20 min.). Large unilamellar vesicles were made by extruding large multilamellar vesicle suspensions 20 times through […] polycarbonate membranes (Millipore, Bedford, Mass.) in a High Pressure Extrusion Device (Sciema Technical Services, Vancouver, BC, Canada) under argon as described previously (Reference 39). Phospholipid concentration was determined by phosphorus assay (Reference 40). Vesicles were used fresh, or 1 ml aliquots were quick-frozen in liquid nitrogen, stored at −80° C., and thawed at 37° C.
Glass microspheres of 1.6 μm nominal diameter (Duke Scientific, Palo Alto, Calif.) were cleaned, size-restricted and covered with a phospholipid bilayer as previously described (Reference 17). Membranes supported by glass microspheres were washed three times in 0.15 M NaCl, 0.02 M Tris-HCl, 0.1% defatted bovine albumin, 10 μM egg PC as sonicated vesicles; stored at 4° C.; and used within 8 hours of synthesis. Fluorescein-labeled factor VIII (4 nM) was incubated with lactadherin or annexin V for 15 min at room temperature, the mixture was added to lipospheres for an additional 10 minutes, and membrane-bound fVIII was measured by flow cytometry. This procedure was performed on 150 μl aliquots with an approximate liposphere concentration of 1×10^6/ml using a Becton Dickinson FACSCalibur flow cytometer. Data acquisition was triggered by forward light scatter with all photomultipliers in the log mode. Noise was reduced during analysis by eliminating events with forward and side scatter values different from those characteristic of the lipospheres. Mean log fluorescence was converted to linear fluorescence for values depicted in the figures. Only experiments in which the fluorescence histogram indicated a log normal distribution, as judged by inspection, were analyzed quantitatively. […]

[6] = molecular target: T2, Recombinant human factor VIII (Homo sapiens, UniProt P00451); test: Binding of factor VIII to lipospheres; details: lipospheres containing 4% Ptd-L-Ser; read-out: dissociation constant of factor VIII for lipospheres
T2 construct: Gift from D. Pittman, Genetics Institute, Cambridge, Mass
From the text: Human factor V was obtained from Haematologic Technologies Inc. (Burlington, Vt.). Recombinant human factor VIII was a gift from D. Pittman of Genetics Institute, Cambridge, Mass. Bovine brain phosphatidylserine (Ptd-L-Ser), egg yolk phosphatidylethanolamine (PE), bovine liver phosphatidylinositol, egg sphingomyelin, egg phosphatidylcholine (PC) and dioleoyl PC were obtained from Avanti Polar Lipids (Alabaster, AL). Phospholipase D from streptomyces, phospho-L-serine phospho-D-serine, L-serine and D-serine were obtained from Sigma.
Factor VIII and factor V were labeled with fluorescein maleimide (Molecular Probes, Eugene, Oreg.) as previously described (References 17 and 37). Protein concentration of factor VIII was determined using a Micro-BCA Assay (Pierce, Rockford, Ill.) using bovine albumin as a standard.
Glass microspheres of 1.6 μm nominal diameter (Duke Scientific, Palo Alto, Calif.) were cleaned, size-restricted and covered with a phospholipid bilayer as previously described (Reference 17). […] Fluorescein-labeled factor VIII (4 nM) was incubated with lactadherin or annexin V for 15 min at room temperature, the mixture was added to lipospheres for an additional 10 minutes, and membrane-bound fVIII was measured by flow cytometry. […] Mean log fluorescence was converted to linear fluorescence for values depicted in the figures. […]

T2 sequence (P00451 20-2351): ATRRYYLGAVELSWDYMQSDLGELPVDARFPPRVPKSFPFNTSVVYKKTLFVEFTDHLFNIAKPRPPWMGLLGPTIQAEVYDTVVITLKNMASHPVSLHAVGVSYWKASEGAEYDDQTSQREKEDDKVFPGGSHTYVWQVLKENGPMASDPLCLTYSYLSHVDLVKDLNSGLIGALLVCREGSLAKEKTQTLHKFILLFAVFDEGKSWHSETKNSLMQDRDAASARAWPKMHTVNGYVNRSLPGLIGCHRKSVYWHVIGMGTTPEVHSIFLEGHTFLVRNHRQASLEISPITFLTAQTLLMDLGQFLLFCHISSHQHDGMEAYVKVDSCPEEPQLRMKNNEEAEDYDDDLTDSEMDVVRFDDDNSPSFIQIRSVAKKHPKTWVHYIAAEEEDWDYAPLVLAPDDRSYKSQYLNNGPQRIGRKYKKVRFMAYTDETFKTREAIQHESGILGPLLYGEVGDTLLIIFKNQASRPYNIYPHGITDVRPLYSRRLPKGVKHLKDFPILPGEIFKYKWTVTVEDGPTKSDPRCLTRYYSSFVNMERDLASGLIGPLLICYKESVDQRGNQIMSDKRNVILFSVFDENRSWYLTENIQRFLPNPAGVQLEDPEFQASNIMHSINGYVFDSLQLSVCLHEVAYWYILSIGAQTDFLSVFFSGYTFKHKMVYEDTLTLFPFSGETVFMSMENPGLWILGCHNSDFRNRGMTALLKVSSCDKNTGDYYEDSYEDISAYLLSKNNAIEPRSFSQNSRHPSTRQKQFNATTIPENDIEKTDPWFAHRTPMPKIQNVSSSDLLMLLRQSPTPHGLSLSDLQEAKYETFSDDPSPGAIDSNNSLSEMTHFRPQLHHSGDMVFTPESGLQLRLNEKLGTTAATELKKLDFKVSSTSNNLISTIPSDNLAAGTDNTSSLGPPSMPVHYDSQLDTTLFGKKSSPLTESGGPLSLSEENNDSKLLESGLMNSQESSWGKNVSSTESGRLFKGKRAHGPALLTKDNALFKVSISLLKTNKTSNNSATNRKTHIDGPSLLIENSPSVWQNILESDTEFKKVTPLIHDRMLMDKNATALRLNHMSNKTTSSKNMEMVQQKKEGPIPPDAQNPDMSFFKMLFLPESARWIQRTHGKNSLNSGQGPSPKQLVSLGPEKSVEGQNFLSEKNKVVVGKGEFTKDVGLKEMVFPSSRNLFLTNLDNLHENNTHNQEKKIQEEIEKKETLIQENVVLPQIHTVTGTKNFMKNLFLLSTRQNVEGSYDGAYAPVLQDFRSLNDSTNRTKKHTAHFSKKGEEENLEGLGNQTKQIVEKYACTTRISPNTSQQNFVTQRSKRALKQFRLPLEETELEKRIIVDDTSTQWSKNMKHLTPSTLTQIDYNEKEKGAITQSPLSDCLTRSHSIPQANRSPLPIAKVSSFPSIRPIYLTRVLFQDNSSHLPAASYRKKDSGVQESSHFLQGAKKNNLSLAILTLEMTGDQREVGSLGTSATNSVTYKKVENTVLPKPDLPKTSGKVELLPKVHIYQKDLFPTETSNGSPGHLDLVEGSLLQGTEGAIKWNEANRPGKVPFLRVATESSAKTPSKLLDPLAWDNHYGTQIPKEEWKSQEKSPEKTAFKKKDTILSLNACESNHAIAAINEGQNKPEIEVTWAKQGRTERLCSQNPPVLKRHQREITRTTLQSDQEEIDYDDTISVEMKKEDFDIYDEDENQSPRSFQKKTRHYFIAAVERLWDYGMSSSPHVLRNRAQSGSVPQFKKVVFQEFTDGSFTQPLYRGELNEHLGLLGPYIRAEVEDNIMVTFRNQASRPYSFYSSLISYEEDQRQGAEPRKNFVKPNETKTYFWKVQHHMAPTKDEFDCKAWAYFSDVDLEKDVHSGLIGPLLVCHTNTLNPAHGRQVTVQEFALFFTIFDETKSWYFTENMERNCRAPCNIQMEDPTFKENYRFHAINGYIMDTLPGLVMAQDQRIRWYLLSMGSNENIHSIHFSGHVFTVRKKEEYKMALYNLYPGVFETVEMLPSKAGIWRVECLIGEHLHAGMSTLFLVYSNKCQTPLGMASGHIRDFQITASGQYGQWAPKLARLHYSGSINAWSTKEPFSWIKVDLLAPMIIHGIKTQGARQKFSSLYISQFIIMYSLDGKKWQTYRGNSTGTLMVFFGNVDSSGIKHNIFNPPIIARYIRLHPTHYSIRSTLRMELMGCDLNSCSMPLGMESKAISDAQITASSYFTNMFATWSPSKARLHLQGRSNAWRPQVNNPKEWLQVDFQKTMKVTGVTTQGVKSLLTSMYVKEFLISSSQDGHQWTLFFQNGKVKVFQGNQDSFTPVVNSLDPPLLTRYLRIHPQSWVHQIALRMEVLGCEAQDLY

Compound: CNc1ccc2oc(C[C@H]3O[C@@]4(CC[C@H]3C)O[C@H]([C@H](C)C(=O)c3ccc[nH]3)[C@H](C)C[C@H]4C)nc2c1C(=O)O [A23187]
fold induction at 0.25 µM (platelets [1]): ~3
NBD fluorescence lost (platelets [2]): > 90%

Compound: CCCCCCCC/C=C\CCCCCCCC(=O)OC[C@H](COP(=O)(O)OC[C@@H](N)C(=O)O)OC(=O)CCCCCCC/C=C\CCCCCCCC [dioleoyl Ptd-D-Ser]
binding of lactadherin ([3]; listed as Ptd-D-Ser): did not support binding of lactadherin above the level supported by control membranes of PE:PC 20:80

Compound: CCCCCCCC/C=C\CCCCCCCC(=O)OC[C@H](COP(=O)(O)OC[C@H](N)C(=O)O)OC(=O)CCCCCCC/C=C\CCCCCCCC [dioleoyl Ptd-L-Ser]
binding of lactadherin [3]: Lactadherin bound to membranes; also recorded: bound lactadherin with high affinity, comparable to Ptd-L-Ser from biologic sources

Compound: N[C@H](COP(=O)(O)O)C(=O)O [phospho-D-serine]
inhibition of lactadherin binding [4]: ≤ 25%
fold less effective as an inhibitor (vs. phospho-L-serine) ([4]; inhibition of lactadherin binding to lipospheres): at least 4 fold

inhibition of lactadherin binding [4]: ≤ 25%
Compound: phosphate

Compound: phosphatidylcholine [PC]
support of lactadherin binding [5]: supported low affinity lactadherin binding

Compound: phosphatidylethanolamine [PE]
effect on number of binding sites or affinity for lactadherin [5]: did not influence the apparent number of binding sites or affinity for lactadherin
effect on number of binding sites or affinity for lactadherin ([5]; listed as phosphatidylethanolamine): did not enhance the apparent affinity or number of lactadherin binding sites

Compound: phosphatidylinositol
support of lactadherin binding [5]: does not support high affinity binding of lactadherin; also recorded: supported low affinity binding of lactadherin

apparent KD, 1% Ptd-L-Ser vs. 4% Ptd-L-Ser membranes (fold difference) ([3]; lipospheres of 1% vs. 4% Ptd-L-Ser): ≤ 2 fold
Kd ([3]; membranes Ptd-L-Ser:PE:PC 4:20:76 on glass microspheres, 10 min, read-out: KD (apparent)): 3.3 ± 0.4 nM
Kd ([5]; sonicated vesicles of 16% Ptd-L-Ser, n<60, read-out: KD (lower limit)): > 0.2 nM
Kd [6]: 4.8 nM
Compound: phosphatidylserine [Ptd-L-Ser]

Source: patent US7771956B2, “Method for detecting the presence of a phospholipid” (Brigham & Women's Hospital, Inc., priority 2003, dated 2010)
